# Measured values taken from the NIST ThermoML archive (doi:10.1021/acs.jced.9b00726).
# Several values for one entry are separate records, joined by “and”; a condition that tells them apart may be missing. Identical values can stand only once. Numbers after ± are expanded uncertainties.
# Assay: activity coefficient (dimensionless); of the first substance listed, at infinite dilution; xn = mol fraction of the nth substance listed
# Details: 100 kPa, Liquid, inert gas stripping, x1 = 0
Structure (SMILES),activity coefficient (278.15 K),activity coefficient (288.15 K),activity coefficient (298.15 K),activity coefficient (308.15 K),activity coefficient (318.15 K),activity coefficient (328.15 K),activity coefficient (273.35 K),activity coefficient (283.15 K),activity coefficient (293.15 K),activity coefficient (303.15 K),activity coefficient (313.15 K),activity coefficient (323.15 K),activity coefficient (333.15 K),activity coefficient (273.17 K),activity coefficient (319.15 K)
CCC(=O)CC [pentan-3-one] + O,–,92.8 ± 8.3,114 and 112,129 ± 12,137 and 133,–,67.9 ± 8.7,86.9 ± 8.7,101 ± 9,118 ± 11,130 ± 12,142 ± 13,148 ± 13,–,–
CCC(C)C(C)=O (stereo unspecified) [3-methyl-2-pentanone] + O,216 ± 47,268 ± 58,296 ± 48,332 ± 43,358 ± 46,380 ± 49,–,–,–,–,–,–,–,–,–
"CC(=O)C(C)(C)C [3,3-dimethyl-2-butanone] + O",217 ± 20,272 ± 25,321 ± 29,345 ± 32,370 ± 34,379 ± 35,–,–,–,–,–,–,–,–,–
CCCCC(C)=O [2-hexanone] + O,257 ± 33,331 ± 34,384 ± 35,422 ± 39,471 ± 61,456 ± 42,–,–,–,–,–,–,–,–,–
CC(=O)CC(C)C [4-methylpentan-2-one] + O,239 ± 24,277 and 287,327 ± 30,370 ± 34,405 ± 37,410 ± 38,–,–,–,–,–,–,–,–,–

# Second part, the compound after the results:
activity coefficient (278.15 K),activity coefficient (288.15 K),activity coefficient (298.15 K),activity coefficient (308.15 K),activity coefficient (318.15 K),activity coefficient (328.15 K),activity coefficient (273.35 K),activity coefficient (283.15 K),activity coefficient (293.15 K),activity coefficient (303.15 K),activity coefficient (313.15 K),activity coefficient (323.15 K),activity coefficient (333.15 K),activity coefficient (273.17 K),activity coefficient (319.15 K),Structure (SMILES)
64.4 ± 8.2,72.9 ± 7.2,91 ± 8.1,102 ± 9.1,112 ± 9.8,119 ± 10,–,–,–,–,–,–,–,–,–,CC(=O)C(C)C [3-methyl-2-butanone] + O
269 ± 58,329 ± 71,391 ± 51,442 ± 58,467 ± 61,491 ± 64,–,–,–,–,–,–,–,–,–,CCC(=O)C(C)C [2-methyl-3-pentanone] + O
67.2 ± 6.7,78.7 ± 7,95.9 ± 8.6,107 ± 9.4,121 ± 11,129 ± 11,–,–,–,–,–,–,130 ± 11,61.4 ± 6.1,–,CCCC(C)=O [pentan-2-one] + O
260 ± 34,340 ± 44,418 ± 43,458 ± 42,–,524 ± 48,–,–,–,–,–,–,–,–,515 ± 47,CCCC(=O)CC [3-hexanone] + O
